The values that follow come from patent US7541353B2, “Compounds for the treatment of hepatitis C” (Bristol-Myers Squibb Company, priority 2007, dated 2009).

One assay deals with T1, HCV NS5B (Hepatitis C virus genotype 1b, UniProt Q9WMX2).
T1 construct: The cDNA encoding the NS5B protein of HCV, genotype 1b; made in house; host or cells: E. coli BL21(DE3)
Briefly: Modified HCV NS5B RdRp enzyme assay (preincubation protocol). In kind it is biochemical. The procedure: HCV NS5B RdRp cloning, expression, and purification. The cDNA encoding the NS5B protein of HCV, genotype 1b, was cloned into the pET21a expression vector. The protein was expressed with an 18 amino acid C-terminal truncation to enhance the solubility. The E. coli competent cell line BL21(DE3) was used for expression of the protein. Cultures were grown at 37° C. for ˜4 hours until the cultures reached an optical density of 2.0 at 600 nm. The cultures were cooled to 20° C. and induced with 1 mM IPTG. Fresh ampicillin was added to a final concentration of 50 μg/ml and the cells were grown overnight at 20° C.
Cell pellets (3L) were lysed for purification to yield 15-24 mgs of purified NS5B. The lysis buffer consisted of 20 mM Tris-HCl, pH 7.4, 500 mM NaCl, 0.5% triton X-100, 1 mM DTT, 1 mM EDTA, 20% glycerol, 0.5 mg/ml lysozyme, 10 mM MgCl2, 15 ug/ml deoxyribonuclease I, and Complete™ protease inhibitor tablets (Roche). After addition of the lysis buffer, frozen cell pellets were resuspended using a tissue homogenizer. To reduce the viscosity of the sample, aliquots of the lysate were sonicated on ice using a microtip attached to a Branson sonicator. The sonicated lysate was centrifuged at 100,000×g for 1 hr at 4° C. and filtered through a 0.2 μm filter unit (Corning).
The protein was purified using two sequential chromatography steps: Heparin sepharose CL-6B and polyU sepharose 4B (Pharmacia). The chromatography buffers were identical to the lysis buffer but contained no lysozyme, deoxyribonuclease I, MgCl2 or protease inhibitor and the NaCl concentration of the buffer was adjusted according to the requirements for charging the protein onto the column. Each column was eluted with a NaCl gradient which varied in length from 5-50 column volumes depending on the column type. After the final chromatography step, the resulting purity of the enzyme is >90% based on SDS-PAGE analysis. The enzyme was aliquoted and stored at −80° C.
Standard HCV NS5B RdRp enzyme assay. HCV RdRp genotype 1b assays were run in a final volume of 60 μl in 96 well plates (Corning 3600). The assay buffer is composed of 20 mM Hepes, pH 7.5, 2.5 mM KCl, 2.5 mM MgCl2, 1 mM DTT, 1.6 U RNAse inhibitor (Promega N2515), 0.01 mg/ml BSA (Sigma B6917), and 2% glycerol. All compounds were serially diluted (3-fold) in DMSO and diluted further in water such that the final concentration of DMSO in the assay was 2%. HCV RdRp genotype 1b enzyme was used at a final concentration of 28 nM. A polyA template was used at 6 nM, and a biotinylated oligo-dT12 primer was used at 180 nM final concentration. Template was obtained commercially (Amersham 27-4110). Biotinylated primer was prepared by Sigma Genosys. 3H-UTP was used at 0.6 μCi (0.29 μM total UTP). Reactions were initiated by the addition of enzyme, incubated at 30° C. for 60 min, and stopped by adding 25 μl of 50 mM EDTA containing SPA beads (4 μg/μl, Amersham RPNQ 0007). Plates were read on a Packard Top Count NXT after >1 hr incubation at room temperature.
Modified HCV NS5B RdRp enzyme assay. A modified enzyme assay was performed essentially as described for the standard enzyme assay except for the following: The biotinylated oligo dT12 primer was precaptured on streptavidin-coated SPA beads by mixing primer and beads in assay buffer and incubating at room temperature for one hour. Unbound primer was removed after centrifugation. The primer-bound beads were resuspended in 20 mM Hepes buffer, pH 7.5 and used in the assay at final concentrations of 20 nM primer and 0.67 μg/μl beads. Order of addition in the assay: enzyme (1.75 nM) was added to diluted compound followed by the addition of a mixture of template (0.36 nM), 3H-UTP (0.6 μCi, 0.29 μM), and primer-bound beads, to initiate the reaction; concentrations given are final. Reactions were allowed to proceed for 4 hours at 30° C.
IC50 values for compounds were determined using seven different [I]. […]

A further assay relates to HCV replicon cells. As to the kind of experiment: HCV replicon FRET assay. In kind it is cell-based. The procedure:
FRET Assay Preparation. The HCV FRET screening assay was performed in 96-well cell culture plates. The FRET peptide (Anaspec, Inc.) (Taliani et al., Anal. Biochem. 1996, 240, 60-67) contains a fluorescence donor, EDANS, near one end of the peptide and an acceptor, DABCYL, near the other end. The fluorescence of the peptide is quenched by […] resonance energy transfer (RET) between the donor and the acceptor, but as the NS3 protease cleaves the peptide the products are released from RET quenching and the fluorescence of the donor becomes apparent. The assay reagent was made as follows: 5× cell Luciferase cell culture lysis reagent from Promega (#E153A) diluted to 1× with dH2O, NaCl added to 150 mM final, the FRET peptide diluted to 20 μM final from a 2 mM stock.
To prepare plates, HCV replicon cells, with or without a Renilla luciferase reporter gene, were trypsinized and plated in a 96-well plate with titrated test compounds added in columns 3 through 12; columns 1 and 2 contained a control compound (HCV control inhibitor), and the bottom row contained cells with DMSO only. The plates were then placed in a CO2 incubator at 37° C.
Assays. Subsequent to addition of the test compounds described above (FRET Assay Preparation), at various times the plate was removed and Alamar blue solution (Trek Diagnostics, #00-100) was added to measure cellular toxicity. After reading in a Cytoflour 4000 instrument (PE Biosystems), plates were rinsed with PBS and then used for FRET assay by the addition of 30 ul of the FRET peptide assay reagent described above (FRET Assay Preparation) per well. The plate was then placed into the Cytoflour 4000 instrument which had been set to 340 excite/490 emission, automatic mode for up to 20 cycles and the plate read in a kinetic mode. Typically, the signal to noise using an endpoint analysis after the reads was at least three-fold. Alternatively, after Alamar blue reading, plates were rinsed with PBS, then used for luciferase assay using the Promega Dual-Glo Luciferase Assay System or the Promega EnduRen Live Cell Substrate assay.
Compound analysis was performed by quantification of the relative HCV replicon inhibition and the relative cytotoxicity values. To calculate cytoxicity values, the average Alamar Blue fluorescence signals from the control wells were set as 100% non-toxic. The individual signals in each of the compound test wells were then divided by the average control signal and multiplied by 100% to determine […]. To calculate the HCV replicon inhibition values, an average background value was obtained from the two wells containing the highest amount of HCV control inhibitor at the end of the assay period. These numbers were similar to those obtained from naïve Huh-7 cells. The background numbers were then subtracted from the average signal obtained from the control wells and this number was used as 100% activity. The individual signals in each of the compound test wells were then divided by the averaged control values after background subtraction and multiplied by 100% to determine percent activity. EC50 values were calculated as the concentration which caused a 50% reduction in FRET or luciferase activity. The two numbers generated for the compound plate, percent cytoxicity and percent activity, were used to determine compounds of interest for further analysis.
(In general: A replicon is a self-replicating genome or part of one, used to study replication in cells.)

Molecules are shown by their SMILES. Where two headings read alike, the source gives them in different places.

What is called IC50 is the concentration needed to halve the response being measured. Read a high IC50 as weaker potency. In general, EC50 refers to the concentration giving half of the maximal effect. A high value points to a need for much substance.

T1 sequence (Q9WMX2 2420-2992): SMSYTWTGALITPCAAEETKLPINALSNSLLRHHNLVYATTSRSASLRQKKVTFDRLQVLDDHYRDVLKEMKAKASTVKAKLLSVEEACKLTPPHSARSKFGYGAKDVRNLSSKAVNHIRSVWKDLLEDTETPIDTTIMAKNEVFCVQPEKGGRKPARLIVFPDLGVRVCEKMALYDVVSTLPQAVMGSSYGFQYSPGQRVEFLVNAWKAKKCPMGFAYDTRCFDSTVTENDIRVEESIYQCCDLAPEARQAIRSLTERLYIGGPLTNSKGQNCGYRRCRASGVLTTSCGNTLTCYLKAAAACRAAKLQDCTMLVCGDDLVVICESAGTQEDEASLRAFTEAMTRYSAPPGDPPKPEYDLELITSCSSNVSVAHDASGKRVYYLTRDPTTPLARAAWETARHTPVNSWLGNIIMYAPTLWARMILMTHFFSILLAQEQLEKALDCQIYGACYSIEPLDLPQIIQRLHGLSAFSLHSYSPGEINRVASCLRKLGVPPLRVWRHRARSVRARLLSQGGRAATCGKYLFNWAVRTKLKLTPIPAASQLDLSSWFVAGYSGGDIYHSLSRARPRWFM

Consider `COc1ccc2c(c1)C1CC1(C(=O)N1C3CCC1CC(N(C)Cc1ccccc1)C3)Cn1c-2c(C2CCCCC2)c2ccc(C(=O)NS(=O)(=O)C(C)C)cc21` (centres unmarked) [drawing 55], for which, at HCV NS5B (preincubation protocol), the IC50 was 4.58 to 500 nM. Besides, the EC50 in the assay on HCV replicon cells (FRET assay) is 4.58 to 500 nM.
The molecule `COc1ccc2c(c1)C1CC1(C(=O)N1C3CCCC1COC3)Cn1c-2c(C2CCCCC2)c2ccc(C(=O)NS(=O)(=O)C3CCC3)cc21` (centres unmarked) registered an IC50 on HCV NS5B of 4.58 to 500 nM. This molecule also came in with an EC50 in the assay on HCV replicon cells (Hepatitis C virus) of 4.58 to 500 nM.
On HCV NS5B, `COc1ccc2c(c1)C1CC1(C(=O)N1C3CCC1CC(NCc1ccccc1)C3)Cn1c-2c(C2CCCCC2)c2ccc(C(=O)NS(=O)(=O)N3CCC3)cc21` (centres unmarked) displayed an IC50 of 4.58 to 500 nM. In the assay on HCV replicon cells (Hepatitis C virus), this molecule yielded an EC50 of 4.58 to 500 nM.
With `COc1ccc2c(c1)C1CC1(C(=O)N1C3CCC1CC(=O)C3)Cn1c-2c(C2CCCCC2)c2ccc(C(=O)NS(=O)(=O)C(C)C)cc21` (centres unmarked), the IC50 on HCV NS5B was 4.58 to 500 nM. The same molecule registered a concentration for a half-maximal effect (EC50) in the assay with HCV replicon cells (Hepatitis C virus) of 4.58 to 500 nM.
On to `COc1ccc2c(c1)C1CC1(C(=O)N1C3CCC1CC(NCCN(C)C)C3)Cn1c-2c(C2CCCCC2)c2ccc(C(=O)NS(=O)(=O)N(C)C)cc21` (centres unmarked), for which the IC50 at HCV NS5B was in the range of 4.58 to 500 nM. For the same molecule, in the assay with HCV replicon cells (Hepatitis C virus), the EC50 was 4.58 to 500 nM.
In the case of `COc1ccc2c(c1)C1CC1(C(=O)N1C3CCC1CC(C)(O)C3)Cn1c-2c(C2CCCCC2)c2ccc(C(=O)NS(=O)(=O)C(C)C)cc21` (centres unmarked), the IC50 against HCV NS5B is 4.58 to 500 nM. Moreover, in the assay on HCV replicon cells (Hepatitis C virus), the EC50 lay within 4.58 to 500 nM.
Molecule `COc1ccc2c(c1)C1CC1(C(=O)N1C3CCC1CC(=O)C3)Cn1c-2c(C2CCCCC2)c2ccc(C(=O)NS(C)(=O)=O)cc21` (centres unmarked) showed an IC50 at HCV NS5B of 4.58 to 500 nM. Besides, the EC50 with HCV replicon cells (Hepatitis C virus) was 4.58 to 500 nM.
In turn, `COc1ccc2c(c1)C1CC1(C(=O)N1C3CCC1CC(O)C3)Cn1c-2c(C2CCCCC2)c2ccc(C(=O)NS(=O)(=O)N(C)C)cc21` (centres unmarked) had an IC50 on HCV NS5B of 4.58 to 500 nM. Besides, in the assay on HCV replicon cells (Hepatitis C virus), the EC50 was in the range of 4.58 to 500 nM.
Turning to `COc1ccc2c(c1)C1CC1(C(=O)N1C3COCC1COC3)Cn1c-2c(C2CCCCC2)c2ccc(C(=O)NS(=O)(=O)C3CCCCC3)cc21` (centres unmarked), the IC50 on HCV NS5B lay within 4.58 to 500 nM. The EC50 in the assay with HCV replicon cells (Hepatitis C virus) was in the range of 4.58 to 500 nM.
`CCC(C)S(=O)(=O)NC(=O)c1ccc2c(C3CCCCC3)c3n(c2c1)CC1(C(=O)N2C4CCC2CC(N(C)Cc2ccccc2)C4)CC1c1cc(OC)ccc1-3` (centres unmarked) showed a half-inhibitory concentration (IC50) against HCV NS5B of 4.58 to 500 nM. The EC50 in the assay on HCV replicon cells (Hepatitis C virus) lay within 4.58 to 500 nM.
